The data set is described as follows: Caco-2 passive permeability. In kind it is in vitro ADME. The following applies: human, Caco-2, pH 7.4; read-out: Caco-2 Papp (intrinsic passive permeability). The source says:
Passive permeability (Papp) characterizes the rate across the cell membrane due to passive diffusion. A high permeability enables the rapid establishment of equilibrium among plasma, CSF, and brain compartments. Except for passive permeability, sufficient unbound drug concentration in the brain is governed by efflux transporters, including P-gp (MDR1, ABCB1) and BCRP, at BBB. Efflux ratio (ER) reflects the liability of a compound to be pumped out of the brain by BBB efflux transporters, which is indicated by the distribution disequilibrium between the plasma and the brain compartments.
Again, DZD1516 and DZ2678 permeability were evaluated in a bi-directional assay in Caco-2 cells at 5 μM. The efflux ratio of DZD1516 and DZ2678, with or without novobiocin (a selective BCRP inhibitor), determined whether DZD1516 or DZ2678 was transported via BCRP in Caco-2 cells. The apical-to-basolateral (A-B) and basolateral-to-apical (B-A) transport of DZD1516/DZ2678 in HBSS (25 mM HEPES, pH 7.4) with 0.1% BSA was measured across Caco-2 cell monolayers in the absence and presence of BCRP inhibitor, novobiocin (30 μM). […] Transport of 5 µM DZD1516/DZ2678 and control compound was determined by quantifying substrate concentration in the incubation medium of the donor compartment at the beginning of the incubation period and both donor and receiver compartments at the end of the incubation period. […]

On to `COc1cc(O[C@H]2CCN(C)CC2(F)F)c2c(Nc3ccc(Oc4ccn5ncnc5c4)c(C)c3)ncnc2c1` [DZD1516], for which the Papp at 120 min, 5 μM amounted to 90 ×10⁻⁶ cm/s.

Usually Papp stands for the rate of passage across a membrane or cell layer, normalised by area and donor concentration.
